Values quoted from earlier work, collected in US20030103955A1 (priority 2000, published 2003).

How the values were obtained:
cycloxygenase = conditions: with reduction of production of tissue prostaglandines PGF2 and PGE2
[1] = tested on: arthritis induced by adjuvant; conditions: compared with aspirin
[2] = octanol/buffer phosphate, ph=7.4

Q: Which activity of cycloxygenase (cycloxygenase) does the source give for O=C(O)Cc1ccccc1Nc1c(Cl)cccc1Cl [Diclofenac] here?
A: inhibits the activity of cycloxygenase

Q: What about the anti-inflammatory effect [1] of the same compound?
A: higher than that of aspirin

Q: And the partition coefficient [2]?
A: 13.0
